{"source": "patent US10683272B2", "about": "(THE JOHNS HOPKINS UNIVERSITY, priority 2014, dated 2020)", "experiment": "radiation dosimetry (OLINDA/EXM) from baboon PET data", "format": "Reference Adult Male based on baboon PET imaging data", "experimental": "For each time-point, the activity concentration (in Bq/cm^3) was measured in each of the 14 delineated organs and multiplied by the organ volume to obtain the total activity per time point per organ. The measured values were then decay-corrected and divided by the baboon organ mass, determined by the CT density and volume from the drawn contours, and the injected radioactivity to obtain the fraction of initial radioactivity per gram (FIA/g) for each time point and each organ. The baboon FIA/g values were then converted to human FIA (per organ) using the following equation (Schwartz et al., 2011; Woodard et al., 1975): […]\nThat approach assumes that the concentration of activity in a particular tissue relative to the overall concentration in the whole body is preserved across species (i.e., organ concentration/total body concentration is the same for baboon and man). The resulting human FIA values were plotted as a function of time (nine data points) for each organ and fit to a bi-exponential expression: FIA(t)=A1.e^−(λ1^bio^.t)+A2.e^−(Δ2^bio^.t) (2)\nwhere A1, A2, λ1bio, and λ2bio are fit parameters. The sum of A1 and A2 give the back-extrapolated, time-zero fraction of administered radioactivity in each organ, and λ1bio and λ2bio are the biological clearance constants. The equation for the time-integrated activity coefficient [TIAC, previously known as residence time (Bolch et al., 2009) for each source organ was obtained, as its name implies, by integrating equation (2) and introducing a physical decay term, λφ, which depends on the isotope used:\nTIACs were calculated for ^90Y, ^177Lu and ^86Y, with their corresponding physical decay constants: ^90Y λφ=0.01083 h^−1 (T1/2=64.0 h); ^177Lu λφ=0.00429 h^−1 (T1/2=161.52 h) and ^86Y λφ=0.04702 h^−1 (T1/2=14.74 h), respectively voiding. Radiation absorbed doses were obtained by converting time-integrated activity to absorbed doses according to the MIRD absorbed fraction methodology (Bolch et al., 2009) through the use of the OLINDA/EXM software (Stabin et al., 2005). The TIAC for the urinary bladder was obtained using the MIRD bladder model implemented in OLINDA/EXM. Input to that model requires the whole-body TIAC, which was obtained from the equation FIA(t)=A. e^(−λ^bio^t) fitted to whole-body retention kinetics. The voiding interval was set to 2 h. The TIACs were then input into OLINDA/EXM (Stabin et al., 2005), and the resulting absorbed dose per unit of radioactivity obtained for the 14 organs. The specific kidney model in OLINDA/EXM was used to obtain the renal cortex dose values. The absorbed dose from organs external to the kidney was added to the renal cortex dose calculated from the internal kidney model. The specific prostate model was used for prostate self-dose, and external dose to the bladder was added as a surrogate for the whole body to prostate dose. The self-dose component of the absorbed dose per unit activity for the salivary glands was obtained using 3D-RD Monte Carlo (EGSnrc) and a human CT with delineated salivary glands. The cross-dose component was taken by assuming the same cross-dose for a like-sized organ (pancreas).\nMeasured activity concentration (in Bq/cm^3) values per time point per organ were decay-corrected and divided by the baboon organ mass, determined by the CT density and volume from the drawn contours, and the injected radioactivity to obtain the fraction of initial radioactivity per gram (FIA/g) for each time point and each organ. The baboon FIA/g values were then converted to human FIA (per organ) using the related equation (Olszewski et al., 2004; Schwartz et al., 2011). The resulting human FIA values were then plotted as a function of time and fit to a bi-exponential expression and the value for the time-integrated activity coefficient (TIAC, previously known as residence time (Woodard et al., 1975)) for each source organ was calculated. […]", "note": "Values joined by “and” are separate entries in the source; they are usually repeats but may differ in a detail not shown here. Identical values can stand only once."}
{"smiles": "O=C([O-])CN1CCN(CC(=O)[O-])CCN(CC(=O)[O-])C(Cc2ccc(NC(=S)NCCCCNC(=O)CCCCCCC(=O)NCCCC[C@H](NC(=O)N[C@@H](CCC(=O)O)C(=O)O)C(=O)O)cc2)CN(CC(=O)[O-])CC1.[86Y+3]", "note": "(stereo partly drawn) [^86Y-6]", "values": [{"measurement": "Organ absorbed dose, Testes", "setting": "^90Y", "result": "3.46E−02", "unit": "mGy/MBq"}, {"measurement": "Organ absorbed dose, Thymus", "setting": "^90Y", "result": "3.46E−02", "unit": "mGy/MBq"}, {"measurement": "Organ absorbed dose, Thyroid", "setting": "^90Y", "result": "3.46E−02", "unit": "mGy/MBq"}, {"measurement": "Organ absorbed dose, ULI wall", "setting": "^90Y", "result": "6.29E−02", "unit": "mGy/MBq"}, {"measurement": "Organ absorbed dose, Urinary bladder wall", "setting": "^90Y", "result": 1.25, "unit": "mGy/MBq"}, {"measurement": "Organ absorbed dose, Uterus", "setting": "^90Y", "result": "3.46E−02", "unit": "mGy/MBq"}, {"measurement": "Time-integrated activity coefficient (residence time), Brain", "setting": "^90Y", "result": "1.79E−02", "unit": "MBq-h/MBq"}, {"measurement": "Time-integrated activity coefficient (residence time), Heart contents", "setting": "^90Y", "result": "3.15E−02", "unit": "MBq-h/MBq"}, {"measurement": "Time-integrated activity coefficient (residence time), Kidneys", "setting": "^90Y", "result": "6.43E−01", "unit": "MBq-h/MBq"}, {"measurement": "Time-integrated activity coefficient (residence time), Liver", "setting": "^90Y", "result": "1.77E−01", "unit": "MBq-h/MBq"}, {"measurement": "Time-integrated activity coefficient (residence time), Lungs", "setting": "^90Y", "result": "1.22E−01", "unit": "MBq-h/MBq"}, {"measurement": "Time-integrated activity coefficient (residence time), Muscle", "setting": "^90Y", "result": "6.85E−01", "unit": "MBq-h/MBq"}, {"measurement": "Time-integrated activity coefficient (residence time), Pancreas", "setting": "^90Y", "result": "8.42E−03", "unit": "MBq-h/MBq"}, {"measurement": "Time-integrated activity coefficient (residence time), Prostate", "setting": "^90Y", "result": "1.42E−03", "unit": "MBq-h/MBq"}, {"measurement": "Time-integrated activity coefficient (residence time), Remainder", "setting": "^90Y", "result": 4.74, "unit": "MBq-h/MBq"}, {"measurement": "Time-integrated activity coefficient (residence time), Renal cortex", "setting": "^90Y", "result": "5.27E−01", "unit": "MBq-h/MBq"}, {"measurement": "Time-integrated activity coefficient (residence time), Salivary Glands", "setting": "^90Y", "result": "4.88E−02", "unit": "MBq-h/MBq"}, {"measurement": "Time-integrated activity coefficient (residence time), Small intestine", "setting": "^90Y", "result": "1.32E−02", "unit": "MBq-h/MBq"}, {"measurement": "Time-integrated activity coefficient (residence time), Spleen", "setting": "^90Y", "result": "1.15E−02", "unit": "MBq-h/MBq"}, {"measurement": "Time-integrated activity coefficient (residence time), Stomach", "setting": "^90Y", "result": "8.06E−03", "unit": "MBq-h/MBq"}, {"measurement": "Time-integrated activity coefficient (residence time), ULI", "setting": "^90Y", "result": "2.51E−02", "unit": "MBq-h/MBq"}, {"measurement": "Time-integrated activity coefficient (residence time), Ur. bladder contents", "setting": "^90Y", "result": "9.54E−01", "unit": "MBq-h/MBq"}, {"measurement": "Organ absorbed dose, Adrenals", "setting": "^177Lu", "result": "6.96E−03", "unit": "mGy/MBq"}, {"measurement": "Organ absorbed dose, Brain", "setting": "^177Lu", "result": "1.48E−03", "unit": "mGy/MBq"}, {"measurement": "Organ absorbed dose, Breasts", "setting": "^177Lu", "result": "6.08E−03", "unit": "mGy/MBq"}, {"measurement": "Organ absorbed dose, Gallbladder wall", "setting": "^177Lu", "result": "6.79E−03", "unit": "mGy/MBq"}, {"measurement": "Organ absorbed dose, Heart wall", "setting": "^177Lu", "result": "9.54E−03", "unit": "mGy/MBq"}, {"measurement": "Organ absorbed dose, Kidneys", "setting": "^177Lu", "result": "2.10E−01", "unit": "mGy/MBq"}, {"measurement": "Organ absorbed dose, LLI wall", "setting": "^177Lu", "result": "7.06E−03", "unit": "mGy/MBq"}, {"measurement": "Organ absorbed dose, Liver", "setting": "^177Lu", "result": "9.37E−03", "unit": "mGy/MBq"}, {"measurement": "Organ absorbed dose, Lungs", "setting": "^177Lu", "result": "1.16E−02", "unit": "mGy/MBq"}, {"measurement": "Organ absorbed dose, Muscle", "setting": "^177Lu", "result": "3.26E−03", "unit": "mGy/MBq"}, {"measurement": "Organ absorbed dose, Osteogenic cells", "setting": "^177Lu", "result": "1.94E−02", "unit": "mGy/MBq"}, {"measurement": "Organ absorbed dose, Ovaries", "setting": "^177Lu", "result": "7.05E−03", "unit": "mGy/MBq"}, {"measurement": "Organ absorbed dose, Pancreas", "setting": "^177Lu", "result": "9.34E−03", "unit": "mGy/MBq"}, {"measurement": "Organ absorbed dose, Prostate", "setting": "^177Lu", "result": "7.94E−03", "unit": "mGy/MBq"}, {"measurement": "Organ absorbed dose, Red marrow", "setting": "^177Lu", "result": "5.04E−03", "unit": "mGy/MBq"}, {"measurement": "Organ absorbed dose, Renal cortex", "setting": "^177Lu", "result": "0.245 mGy/MBq and 2.45E−01 mGy/MBq"}, {"measurement": "Organ absorbed dose, Salivary glands", "setting": "^177Lu", "result": "4.76E−02", "unit": "mGy/MBq"}, {"measurement": "Organ absorbed dose, Skin", "setting": "^177Lu", "result": "6.01E−03", "unit": "mGy/MBq"}, {"measurement": "Organ absorbed dose, Small intestine", "setting": "^177Lu", "result": "8.30E−03", "unit": "mGy/MBq"}, {"measurement": "Organ absorbed dose, Spleen", "setting": "^177Lu", "result": "7.16E−03", "unit": "mGy/MBq"}, {"measurement": "Organ absorbed dose, Stomach wall", "setting": "^177Lu", "result": "7.88E−03", "unit": "mGy/MBq"}, {"measurement": "Organ absorbed dose, Testes", "setting": "^177Lu", "result": "6.56E−03", "unit": "mGy/MBq"}, {"measurement": "Organ absorbed dose, Thymus", "setting": "^177Lu", "result": "6.29E−03", "unit": "mGy/MBq"}, {"measurement": "Organ absorbed dose, Thyroid", "setting": "^177Lu", "result": "6.26E−03", "unit": "mGy/MBq"}, {"measurement": "Organ absorbed dose, ULI wall", "setting": "^177Lu", "result": "1.16E−02", "unit": "mGy/MBq"}, {"measurement": "Organ absorbed dose, Urinary bladder wall", "setting": "^177Lu", "result": "2.14E−01", "unit": "mGy/MBq"}, {"measurement": "Organ absorbed dose, Uterus", "setting": "^177Lu", "result": "7.76E−03", "unit": "mGy/MBq"}, {"measurement": "Time-integrated activity coefficient (residence time), Brain", "setting": "^177Lu", "result": "1.89E−02", "unit": "MBq-h/MBq"}, {"measurement": "Time-integrated activity coefficient (residence time), Heart contents", "setting": "^177Lu", "result": "3.30E−02", "unit": "MBq-h/MBq"}, {"measurement": "Time-integrated activity coefficient (residence time), Kidneys", "setting": "^177Lu", "result": "7.24E−01", "unit": "MBq-h/MBq"}, {"measurement": "Time-integrated activity coefficient (residence time), Liver", "setting": "^177Lu", "result": "1.88E−01", "unit": "MBq-h/MBq"}, {"measurement": "Time-integrated activity coefficient (residence time), Lungs", "setting": "^177Lu", "result": "1.28E−01", "unit": "MBq-h/MBq"}, {"measurement": "Time-integrated activity coefficient (residence time), Muscle", "setting": "^177Lu", "result": "8.15E−01", "unit": "MBq-h/MBq"}, {"measurement": "Time-integrated activity coefficient (residence time), Pancreas", "setting": "^177Lu", "result": "9.00E−03", "unit": "MBq-h/MBq"}, {"measurement": "Time-integrated activity coefficient (residence time), Prostate", "setting": "^177Lu", "result": "1.48E−03", "unit": "MBq-h/MBq"}, {"measurement": "Time-integrated activity coefficient (residence time), Remainder", "setting": "^177Lu", "result": 4.84, "unit": "MBq-h/MBq"}, {"measurement": "Time-integrated activity coefficient (residence time), Renal cortex", "setting": "^177Lu", "result": "6.02E−01", "unit": "MBq-h/MBq"}, {"measurement": "Time-integrated activity coefficient (residence time), Salivary Glands", "setting": "^177Lu", "result": "4.97E−02", "unit": "MBq-h/MBq"}, {"measurement": "Time-integrated activity coefficient (residence time), Small intestine", "setting": "^177Lu", "result": "1.43E−02", "unit": "MBq-h/MBq"}, {"measurement": "Time-integrated activity coefficient (residence time), Spleen", "setting": "^177Lu", "result": "1.29E−02", "unit": "MBq-h/MBq"}, {"measurement": "Time-integrated activity coefficient (residence time), Stomach", "setting": "^177Lu", "result": "8.46E−03", "unit": "MBq-h/MBq"}, {"measurement": "Time-integrated activity coefficient (residence time), ULI", "setting": "^177Lu", "result": "2.64E−02", "unit": "MBq-h/MBq"}, {"measurement": "Time-integrated activity coefficient (residence time), Ur. bladder contents", "setting": "^177Lu", "result": 1.00, "unit": "MBq-h/MBq"}, {"measurement": "highest mean absorbed dose, renal cortex", "setting": "overview text b262", "result": 1.9, "unit": "mGy per MBq"}]}
